In ChEMBL document CHEMBL1148772, “Inhibition of Mycobacterium tuberculosis, Mycobacterium bovis, and Mycobacterium avium by novel dideoxy nucleosides” (J Med Chem, 2007):
In brackets after ≈: the same amount, converted by molar mass.

Experiments:
Assay type in all cases: functional
Conditions in all cases: variant bovis BCG
[1] = test system: Mycobacterium tuberculosis; assay: Antimycobacterial activity against Mycobacterium bovis BCG at 50 uM by microplate alamar blue assay
[2] = test system: Mycobacterium tuberculosis; assay: Antimycobacterial activity against Mycobacterium bovis BCG at 100 uM by microplate alamar blue assay
[3] = test system: Mycobacterium tuberculosis; assay: Antimycobacterial activity against Mycobacterium bovis BCG at 1 uM by microplate alamar blue assay
[4] = test system: Mycobacterium tuberculosis; assay: Antimycobacterial activity against Mycobacterium bovis BCG by microplate alamar blue assay
[5] = test system: Mycobacterium tuberculosis; assay: Antimycobacterial activity against Mycobacterium bovis BCG at 10 uM by microplate alamar blue assay

Row | Structure (SMILES) | inhibition at 50 µM [1] [%] | inhibition at 100 µM [2] [%] | inhibition at 1 µM [3] [%] | MIC90 [4] [µg/mL] | inhibition at 10 µM [5] [%]
1 | COc1nc(N)nc2c1ncn2[C@H]1CC[C@@H](CO)O1 [METACAVIR] | 25 | 25 |  |  | 
2 | CCCCCCCCCC#Cc1cn([C@H]2CC[C@@H](CO)O2)c(=O)[nH]c1=O | 100 | 100 | 80 | 1 (≈ 2.76 µM) | 100
3 | N#Cc1cn(C2CCC(CO)O2)c2ncnc(N)c12 (stereo not drawn) | 40 | 50 |  |  | 
4 | CCSc1nc(N)nc2c1ncn2[C@H]1CC[C@@H](CO)O1 | 100 | 100 |  | 10 (≈ 33.9 µM) | 40
5 | O=c1[nH]c(=O)n([C@H]2CC[C@@H](CO)O2)cc1Cl |  | 0 |  |  | 
6 | Nc1ncnc2c1ncn2[C@H]1CC[C@@H](CO)O1 |  | 0 |  |  | 
7 | CCCC#Cc1cn([C@H]2CC[C@@H](CO)O2)c(=O)[nH]c1=O |  | 50 |  |  | 
8 | O=c1[nH]c(=O)n([C@H]2CC[C@@H](CO)O2)cc1C#Cc1ccccc1 | 25 | 25 |  |  | 
9 | CC(=O)OC[C@@H]1CC[C@H](n2ccc(=O)[nH]c2=O)O1 |  | 0 |  |  | 
10 | CC(=O)OC[C@@H]1CC[C@H](n2cc(Cl)c(=O)[nH]c2=O)O1 |  | 0 |  |  | 
11 | Nc1ccn([C@@H]2CS[C@H](CO)O2)c(=O)n1 [LAMIVUDINE] |  | 0 |  |  | 
12 | CCCCCCCCCCCC#Cc1cn([C@H]2CC[C@@H](CO)O2)c(=O)[nH]c1=O | 100 | 100 | 60 | 1 (≈ 2.56 µM) | 100
13 | Cc1cn([C@H]2CC[C@@H](CO)O2)c(=O)nc1N | 50 | 50 |  |  | 50
14 | Nc1nc(=O)n([C@H]2CC[C@@H](CO)O2)cc1Br |  | 70 |  |  | 50
15 | Nc1ccn([C@H]2CC[C@@H](CO)O2)c(=O)n1 [ZALCITABINE] |  | 0 |  |  | 
16 | CCCCCCCCCCC#Cc1cn([C@H]2C[C@H](F)[C@@H](CO)O2)c(=O)[nH]c1=O | 100 | 100 |  | 10 (≈ 25.3 µM) | 75

Row | Structure (SMILES) | inhibition at 50 µM [1] [%] | inhibition at 100 µM [2] [%] | inhibition at 1 µM [3] [%] | MIC90 [4] [µg/mL] | inhibition at 10 µM [5] [%]
17 | CCCCCCCCCCCC#Cc1cn([C@H]2C[C@H](F)[C@@H](CO)O2)c(=O)[nH]c1=O | 100 | 100 |  | 10 (≈ 24.5 µM) | 75
18 | Nc1nc(O)c2ncn([C@H]3CC[C@@H](CO)O3)c2n1 |  | 0 |  |  | 
19 | NC(=O)c1cn([C@H]2CC[C@@H](CO)O2)c2ncnc(N)c12 | 25 | 25 |  |  | 
20 | Nc1nc(F)c2ccn([C@H]3CC[C@@H](CO)O3)c2n1 | 50 | 50 |  |  | 30
21 | Nc1nc(=O)n([C@H]2CC[C@@H](CO)O2)cc1I |  | 0 |  |  | 
22 | O=c1[nH]c(=S)c(Cl)cn1[C@H]1CC[C@@H](CO)O1 | 50 | 100 |  | 50 (≈ 190 µM) | 
23 | CCCc1ccc(C#Cc2cn([C@H]3C[C@H](F)[C@@H](CO)O3)c(=O)[nH]c2=O)cc1 | 100 | 100 |  | 50 (≈ 134 µM) | 50
24 | CCCCCCCCC#Cc1cn([C@H]2C[C@H](F)[C@@H](CO)O2)c(=O)[nH]c1=O | 100 | 100 |  | 10 (≈ 27.3 µM) | 60
25 | CC(=O)OC[C@@H]1CC[C@H](n2cc(Cl)c(=S)[nH]c2=O)O1 | 70 | 100 |  | 50 (≈ 164 µM) | 
26 | CCCCCCCCCCCCC#Cc1cn(C2CC(F)C(CO)O2)c(=O)[nH]c1=O (stereo not drawn) | 100 | 100 |  | 1 (≈ 2.37 µM) | 100
27 | CCCCCCCCCCCCC#Cc1cn([C@H]2CC[C@@H](CO)O2)c(=O)[nH]c1=O | 100 | 100 | 50 | 1 (≈ 2.47 µM) | 100
28 | CCCCCC#Cc1cn([C@H]2C[C@H](F)[C@@H](CO)O2)c(=O)[nH]c1=O | 50 | 100 |  | 50 (≈ 154 µM) | 50
29 | O=c1[nH]c(=O)n([C@H]2CC[C@@H](CO)O2)cc1Br |  | 0 |  |  | 
30 | Nc1nc(N)c2ncn([C@H]3CC[C@@H](CO)O3)c2n1 | 50 | 50 |  |  | 
31 | CO[C@H]1/C=C/O[C@@]2(C)Oc3c(C)c(O)c4c(O)c(c(/C=N/N5CCN(C)CC5)c(O)c4c3C2=O)NC(=O)/C(C)=C\C=C\[C@H](C)[C@H](O)[C@@H](C)[C@@H](O)[C@@H](C)[C@H](OC(C)=O)[C@@H]1C [RIFAMPIN] |  |  |  | 0.5 (≈ 0.608 µM) | 
32 | CCCCCCCCC#Cc1cn([C@H]2CC[C@@H](CO)O2)c(=O)[nH]c1=O | 100 | 100 | 50 | 1 (≈ 2.87 µM) | 100
